Measured values published in patent US8193377B2, “(−)-epigallocatechin gallate derivatives for inhibiting proteasome” (The Hong Kong Polytechnic University, priority 2004, dated 2012).

Legend:
[1] = tested on: Jurkat T cells; test: Western blot for PARP cleavage in Jurkat T cells; type: cell-based, human; conditions: 25 μM, 24 h
Method: (§1) Whole cells extracts were prepared as described previously (An B, Goldfarb R H, Siman R, Dou Q P. Novel dipeptidyl proteasome inhibitors overcome Bc1-2 protective function and selectively accumulate the cyclin-dependent kinase inhibitor p27 and induce apoptosis in transformed, but not normal, human fibroblasts. Cell Death Differ 1998; 5: 1062-75.). Analysis of Bax, IKBa, p27, PAW, and ubiquitinated protein expression were performed using monoclonal or polyclonal antibodies according to previously reported protocols (An B et. al.).
(§2) It has been shown that proteasome inhibition can induce apoptosis in a wide variety of cancer cells, but not in normal, non-transformed cells (An B et al). Jurkat T cells are treated with 25 μM of each of the selected polyphenols and their protected analogs for 24 h to investigate their abilities to induce apoptotic cell death. […] The unprotected 2 induced much less apoptosis (21%), while 25 μM VP-16, used as a positive control, induced 92% apoptosis (FIGS. 10C and 10D). Counterstain with DAPI, which binds to the minor groove in A-T rich regions of DNA, was decreased drastically in apoptotic cells (FIG. 10C), consistent with DNA fragmentation in late stage apoptosis.
To determine if the cell death observed (FIG. 16) was due to the induction of apoptosis, a similar experiment was performed in Jurkat T cells, followed by measurement of caspase-3 activation and PARP cleavage.

[2] = tested on: LNCaP cells; test: Apoptotic morphological changes, phase contrast; type: cell-based, human; conditions: 25 μM, 24 h
[3] = tested on: LNCaP cells; test: Soft agar colony formation assay; type: cell-based, human; conditions: 25 μM once at plating, 21 days
[4] = tested on: ubiquitinated proteins, Bax, p27, IκBα in Jurkat T cells; test: Western blot for ubiquitinated proteins and proteasome targets (Bax, p27, IκBα) in Jurkat T cells; type: cell-based, human; conditions: 25 μM
Method: as §1
To determine what effects the synthetic tea analogs had on the proteasome in vivo, Jurkat cells were treated with 25 μM of each synthetic compound for either 4 or 24 h, with (−)-EGCG as a control (FIGS. 9A and 9B). […] This is consistent with the idea that protected analogs are potent inhibitors of the proteasome at an earlier time point and that after 24 h of treatment the ubiquitinated proteins are being depleted by deubiquitinating enzymes. […] The putative ubiquitinated IκBα band is still found in cells treated with 2a, 3a, and 4a (FIG. 9B, Lanes 9, 5, 7). The presumed ubiquinated IκBα band is now absent in the 24 h treatment, possibly due to deubiquitination (FIG. 9B). Actin was used as a loading control in this experiment.
The pro-apoptotic protein Bax and the cyclin-dependent kinase inhibitor p27 are natural proteasome targets. If the peracetate-protected polyphenols inhibit the intact proteasome activity, we would expect accumulation of Bax and p27 in these cells. To test this idea, Jurkat T cells were treated with both protected and unprotected compounds and lysates were analyzed by Western blot using specific antibodies to Bax and p27 (FIG. 15). After 4 h of treatment, the peracetate-protected analogs 24* and 19*, but not their unprotected analogs, were able to increase accumulation of both Bax (by 3- and 2.5-fold, respectively) and p27 (6- and 11-fold, respectively) (FIG. 15A). After 24 h treatment, Bax levels were increased in cells treated with all of the peracetate-protected compounds (13-, 12-, 40- and 36-fold, respectively, by 24*, 19*, 21* and 23*).

[5] = tested on: Jurkat T cells; test: Trypan blue cell death assay in Jurkat T cells; type: cell-based, human; conditions: 24 h
[6] = tested on: MCF-7 cells; test: MTT assay; type: cell-based, human; conditions: 24 h
Method: MTT was used to determine effects of polyphenols on overall proliferation of tumor cells. Human breast MCF-7 cells were plated in a 96 well plate and grown to 70-80% confluency, followed by addition of analogs for 24 h. MTT (1 mg/ml) in PBS was then added to wells and incubated at 37° C. for 4 hours to allow for complete cleavage of the tetrazolium salt by metabolically active cells. Next, the MTT was removed and 100 μl of DMSO was added and colorimetric analysis performed using a multilabel plate reader at 560 nm (Victor^3; Perkin Elmer). Absorbance values plotted are the mean from triplicate experiments.
Treated breast cancer (MCF-7) cells were then treated with 5 or 25 μM of peracetate-protected analogs for 24 h, followed by MTT analysis to determine their effects on cell proliferation. Compound 1 at 25 μM inhibited cellular proliferation by 40% (FIG. 11A).

[7] = tested on: VA-13 cells; test: Nuclear staining (Hoechst) for apoptotic morphology, VA-13; type: cell-based, human; conditions: 25 μM, 24 h
Method: After each drug treatment, both detached and attached VA-13 and WI-38 cells were stained Hoechst 33342 to assess for apoptosis. Briefly, cells were washed 2× in PBS, fixed for 1 h with 70% ethanol at 4° C., washed 3× in PBS, and stained with […] Hoechst for 30 min in the dark at room temperature. Detached cells were plated on a slide and attached cells were visualized on the plate with a fluorescent microscope at 10× or 40× resolution (Zeiss, Germany). Digital Scientific obtained images with AxioVision 4.1 and adjusted using Adobe Photoshop 6.0.
Next, apoptotic nuclear morphology is examined after treatment with natural (−)-EGCG, 2, and 2a (FIG. 12B). […] A comparison among all the protected analogs was then performed using 25 μM for 24 h. […] All of the protected analogs induced apoptosis in transformed (VA-13), but not normal (WI-38) cells (FIGS. 12B and 12C).

[8] = target: T1, purified rabbit 20s proteasome (Oryctolagus cuniculus, UniProt G1T4Q9); test: Inhibition of chymotrypsin-like activity of purified 20S proteasome; type: biochemical
T1 construct: purchased Boston Biochem (Cambridge, Mass.)
T1 sequence (G1T4Q9 1-263): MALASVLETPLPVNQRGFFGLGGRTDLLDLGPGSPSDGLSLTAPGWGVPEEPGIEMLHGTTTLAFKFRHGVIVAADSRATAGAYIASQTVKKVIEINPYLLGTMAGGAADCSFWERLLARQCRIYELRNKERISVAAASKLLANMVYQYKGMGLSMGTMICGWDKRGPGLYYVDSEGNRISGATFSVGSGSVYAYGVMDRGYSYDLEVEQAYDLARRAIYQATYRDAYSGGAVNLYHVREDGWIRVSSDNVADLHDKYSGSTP
Method: Measurement of the chyrnotrypsin-like activity of the 20s proteasome was performed by incubating 0.5 μg of purified rabbit 20s proteasome with 40 μM fluorogenic peptide substrate, Suc-Leu-Leu-Val-Tyr-AMC, with or without various concentrations of natural and synthetic tea polyphenols as described previously (Nam S et. al.).
In order to test this hypothesis, proteasome activity was tested both in vitro and in intact Jurkat T cells with either 1 or (−)-EGCG (as a positive control). First, 1 and commercial (−)-EGCG were dissolved in DMSO and their effects on the chymotrypsin-like activity of purified 20S proteasomes were measured. […] In contrast, (−)-EGCG at 10 μM inhibited 80-90% of the proteasomal chymotrypsin-like activity. Therefore, as predicted, 1 outside of a cellular system is not a proteasome inhibitor.
Up to 25 μM of all protected and unprotected compounds were incubated with a purified 20s proteasome and a fluorogenic substrate for chyrnotrypsin activity for 30 min. The half-maximal inhibitory concentration or IC50 was then determined. […] This is consistent with the results above.

[9] = tested on: VA-13 cells; test: Immunostaining of apoptotic cells with anti-cleaved PARP-FITC; type: cell-based, human; conditions: 25 μM, 24 h
Method: Immunostaining of apoptotic cells was performed by addition of a FITC-conjugated polyclonal antibody that recognizes cleaved poly(ADP-ribose) polymerase (PARP) and visualized on an Axiovert 2 5 (Zeiss; Thornwood, N.Y.) microscope. Cells were grown to about 80% confluency in 60 mm dishes. VA-13 cells were then treated with VP-16, 2, or 2a (25 μM) for 24 h. Following treatment, both suspension and adhering cells were collected and washed twice in PBS pH 7.4. The cells were washed between all steps listed below and all washes are 1 min duration with PBS. Cells were then fixed in ice-cold 70% ethanol, permeabilized in 0.1% Triton-X-100 and blocked for 30 min in 1% bovine serum albumin (BSA) at room temperature. Incubation with the primary FITC-conjugated-p85/PARP antibody was for 30 min at 4° C. in the dark with mild shaking. Cell suspension was then transferred to glass slides in the presence of Vector Shield mounting medium with DAPI. Images were captured using AxioVision 4.1 and adjusted using Adobe Photoshop 6.0 software. Cell death was quantified by counting the number of apoptotic cells over the total number of cells in the same field. Data are mean of duplicate experiments ±SD.
as §2

[10] = target: T2, proteasomal chymotrypsin-like activity in Jurkat T cells (Homo sapiens, UniProt P28074); test: Proteasomal chymotrypsin-like activity in intact Jurkat T cells / their lysates; type: cell-based; conditions: 25 μM, 24 h, Jurkat T
T2 construct: measurement of the proteasomal chymotrypsin-like activity in the prepared lysates; endogenous in cells; host or cells: Jurkat T cells (human leukemia)
T2 sequence (P28074 60-263): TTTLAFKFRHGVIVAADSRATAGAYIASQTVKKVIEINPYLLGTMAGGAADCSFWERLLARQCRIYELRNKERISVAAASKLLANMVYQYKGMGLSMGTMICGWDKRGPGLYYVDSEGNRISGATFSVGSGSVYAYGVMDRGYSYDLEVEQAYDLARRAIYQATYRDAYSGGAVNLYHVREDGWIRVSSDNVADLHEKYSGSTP
Method: VA-13 or WI-38 cells were grown in 24 well plates (2 ml/well) to 70-80% confluency, followed by 24 h treatment with […] (−)-EGCG, 2, or 2a. […] Suc-Leu-Leu-Val-Tyr-AMC substrate was then added for 2.5 h at 37° C. and the chyrnotrypsin-like activity was measured as described above. Alternatively, cells were treated with each compound at 25 μM for 4 or 24 h, and harvested and lysed. Suc-Leu-Leu-Val-Tyr-AMC (40 μM) was then incubated with the prepared cell lysates for 2.5 h and the chymotrypsin-like activity was measured as described above.
If 1 converts to (−)-EGCG inside the cells, proteasome inhibition in vivo should be detected. To examine this possibility, human Jurkat cells was treated with 25 μM of 1 or (−)-EGCG for 12 or 24 h, followed by measurement of proteasome activity by using a chymotrypsin-like specific fluorogenic substrate in intact cells (FIG. 6a) or Western blot for ubiquinated proteins (FIG. 6b). […] To analyze the intracellular level of polyubiquitinated proteins, cells were lysed after 12 hours incubation and subjected to Western blotting. […] It is possible that the amount of EGCG generated from 1, and thus its biological activity inside the cells depends on a combination of factors: the relative permeability of 1 into the cells, the amount of esterase enzymes and the amount of anti-oxidants that may be present in the cells at any time.
To determine whether the unprotected and protected polyphenol analogs could inhibit the proteasomal activity in intact cells, leukemia Jurkat T cells were treated with each compound at 25 μM for 4 and 24 h, followed by collection of cell pellets and measurement of the proteasomal chymotrypsin-like activity in the prepared lysates.

[11] = Stability test in RPMI 1640 culture medium, HPLC; conditions: 37° C.
Method: The stability of 1 with (−)-EGCG in a culture medium (RMPI) is compared, which mimics the body fluid with a pH value around 8. (−)-EGCG or 1 at 0.1 mM was incubated in 1 mL RMPI at 37° C. at indicated times. At different time points, the medium was analyzed by HPLC for the amount of tested compound remaining.

[12] = tested on: phosphorylated Akt (p-Akt); test: Western blot for phosphorylated Akt in Jurkat T cells; type: cell-based, human; conditions: 25 μM, 24 h
Method: (−)-EGCG and 1 were incubated with Jurkat T cells for 24 h at 5, 10 and 25 μM, followed by Western blot analysis using a specific antibody to phosphorylated Akt (FIG. 7). […] Actin was used as a loading control.

Which results are given for `CC(=O)Oc1cc(OC(C)=O)cc(C(=O)O[C@@H]2Cc3c(OC(C)=O)cc(OC(C)=O)cc3O[C@H]2c2cc(OC(C)=O)c(OC(C)=O)c(OC(C)=O)c2)c1` (relative stereo) [Compound 4a, (2S*,3R*)-trans-5,7-Bis(acetyloxy)-2-[3,4,5-tris(acetyloxy)phenyl]chroman-3-yl 3,5-bis(acetyloxy)benzoate]?
apoptosis-specific PARP cleavage [1]: induced apoptosis-specific PARP cleavage; apoptotic morphological changes [2]: dramatic round-up, detachment, and cellular fragmentation; colony formation in soft agar [3]: most potent inhibitors of colony formation; accumulation of p27 ([4]; 24 h): Accumulation of p27; time course of ubiquitinated protein accumulation ([4]; up to 8 h): as early as 2 h and lasting up to 8 h; cell death (trypan blue) ([5]; 25 μM): 83%; inhibition of cellular proliferation ([6]; 5 μM): 50%; inhibition of cellular proliferation ([6]; 25 μM): 70%

Which results are given for `O=C(O[C@@H]1Cc2c(O)cc(O)cc2O[C@H]1c1cc(O)c(O)c(O)c1)c1cccc(O)c1` (relative stereo) [Compound 2, (2S*,3R*)-trans-5,7-Bis(hydroxy)-2-[3,4,5-tris(hydroxy)phenyl]chroman-3-yl 3-(hydroxy)benzoate]?
apoptotic nuclear morphology [7]: little or no apoptosis; IC50 ([8]; up to 25 μM, 30 min incubation, read-out: IC50): ~9.9 µM; apoptotic cells (p85 cleaved PARP) [9]: 21%

What does the source list for `CC(=O)Oc1cc(OC(C)=O)c2c(c1)O[C@H](c1cc(OC(C)=O)c(OC(C)=O)c(OC(C)=O)c1)[C@H](OC(=O)c1cc(OC(C)=O)c(OC(C)=O)c(OC(C)=O)c1)C2` [Compound 1, peracetate (−)-EGCG]?
inhibition of proteasome activity in intact cells [10]: 42%; apoptotic morphological changes [2]: mild morphological changes; time after which compound disappeared completely ([11]; 0.1 mM in RPMI, pH around 8): 2 h; stability relative to (−)-EGCG ([11]; RPMI culture medium): 6 times; level of ubiquitinated proteins ([4]; 12 h): comparable levels of ubiquitinated proteins to that of natural (−)-EGCG; inhibition of proteasomal chymotrypsin-like activity ([8]; 10 μM, purified 20S proteasome): completely inactive; cell death ([5]; 10 μM): up to 15%; inhibition of cellular proliferation ([6]; 25 μM): 40%; reduction of p-Akt level (densitometry) [12]: 73%
